Results: patent US5055302A, “Neuropeptide control of ocular growth” (Trustees of the University of Pennsylvania, priority 1990, dated 1991)
“Also recorded” adds a separate entry of the source.

Key:
open eyes = assay: Effect of VIP on growth of open eyes (control chicks with both eyes open, one eye treated); assay type: in vivo, White Leghorn chicks; conditions: for Axial length (treated eye minus untreated eye), mean ± S.E.M. / Equatorial diameter (treated eye minus untreated eye), mean ± S.E.M.: open eyes, subconjunctival
Procedure: (§1) Form deprivation myopia in day-old White Leghorn chicks was induced by eyelid suture under aseptic conditions and ether anesthesia. One eyelid of the chicks was sutured. […] Translucent vision is permitted through the eyelid. The contralateral unsutured open eye served as the control eye. VIP was administered daily to the deprived, or sutured, eye. Saline was administered to the unsutured eye. All agents were given under ether anesthesia by subconjunctival injection. The chicks were maintained on a 12 hour light/dark cycle. The birds were killed at ages up to 4 weeks by decapitation under deep pentobarbital anesthesia. Axial and equatorial dimensions of unfixed eyes were measured with vernier calipers.
(§2) VIP (porcine VIP, Peninsula Laboratories, Inc. Belmont Calif.) was administered in three (descending) dose levels to lid-sutured eyes of 23 chicks and to one eye of an additional 15 chicks which had both eyes open.

lid-sutured eyes = assay: Form deprivation myopia induced by eyelid suture in chicks; VIP given daily by subconjunctival injection to the sutured eye, ocular dimensions measured with calipers; assay type: in vivo, White Leghorn chicks; conditions: for Axial length (deprived minus control eye), mean ± S.E.M. / Equatorial diameter (deprived minus control eye), mean ± S.E.M.: subconjunctival
Procedure: as §1, §2

## CC[C@H](C)[C@H](NC(=O)[C@H](CO)NC(=O)[C@H](CC(N)=O)NC(=O)[C@H](CC(C)C)NC(=O)[C@H](Cc1ccc(O)cc1)NC(=O)[C@H](CCCCN)NC(=O)[C@H](CCCCN)NC(=O)[C@@H](NC(=O)[C@H](C)NC(=O)[C@H](CCSC)NC(=O)[C@H](CCC(N)=O)NC(=O)[C@H](CCCCN)NC(=O)[C@H](CCCNC(=N)N)NC(=O)[C@H](CC(C)C)NC(=O)[C@H](CCCNC(=N)N)NC(=O)[C@@H](NC(=O)[C@H](Cc1ccc(O)cc1)NC(=O)[C@H](CC(N)=O)NC(=O)[C@H](CC(=O)O)NC(=O)[C@@H](NC(=O)[C@H](Cc1ccccc1)NC(=O)[C@@H](NC(=O)[C@H](C)NC(=O)[C@H](CC(=O)O)NC(=O)[C@H](CO)NC(=O)[C@@H](N)Cc1c[nH]cn1)C(C)C)[C@@H](C)O)[C@@H](C)O)C(C)C)C(=O)N[C@@H](CC(C)C)C(=O)N[C@@H](CC(N)=O)C(N)=O [VIP, vasoactive intestinal peptide]
Open eyes; controls (both eyes open), all three levels of VIP
  Treatment effect on axial or equatorial diameters: no significant treatment effect
Open eyes; daily dose 0.025 μg
  Axial length (treated eye minus untreated eye), mean ± S.E.M.: 0.008 ± 0.10 mm
  Equatorial diameter (treated eye minus untreated eye), mean ± S.E.M.: 0.07 ± 0.04 mm
Open eyes; daily dose 0.25 μg
  Axial length (treated eye minus untreated eye), mean ± S.E.M.: 0.03 ± 0.05 mm
  Equatorial diameter (treated eye minus untreated eye), mean ± S.E.M.: 0.02 ± 0.02 mm
Open eyes; daily dose 2.5 μg
  Axial length (treated eye minus untreated eye), mean ± S.E.M.: 0.13 ± 0.06 mm
  Equatorial diameter (treated eye minus untreated eye), mean ± S.E.M.: -0.01 ± 0.06 mm
lid-sutured eyes; 0.25 μg dose
  Block of axial elongation: ~80%
lid-sutured eyes; (p<0.05)
  Treatment effect on axial length, one way analysis of variance: significant treatment effects
lid-sutured eyes; VIP treatment, all doses
  Treatment effect on equatorial diameters: no significant treatment effects
lid-sutured eyes; daily dose 0.025 μg
  Axial length (deprived minus control eye), mean ± S.E.M.: 0.17 ± 0.10 mm
  Equatorial diameter (deprived minus control eye), mean ± S.E.M.: 0.91 ± 0.05 mm
lid-sutured eyes; daily dose 0.25 μg
  Axial length (deprived minus control eye), mean ± S.E.M.: 0.07 ± 0.07 mm
  Equatorial diameter (deprived minus control eye), mean ± S.E.M.: 0.92 ± 0.04 mm
lid-sutured eyes; daily dose 2.5 μg
  Effective range of the peptide: outside the effective range
  Axial length (deprived minus control eye), mean ± S.E.M.: 0.34 ± 0.15 mm
  Equatorial diameter (deprived minus control eye), mean ± S.E.M.: 0.90 ± 0.10 mm
lid-sutured eyes; dose 0.25 μg (p<0.001)
  Treatment effect on axial length, one way analysis of variance: profound treatment effect; also recorded: significant treatment effects
